Results taken from patent publication US8388986B2, “Use of cationic surfactants in cosmetic preparations” (priority 2001, dated 2013).

Key:
[1] = test system: Listeria monocytogenes ATCC 7644; test: minimum inhibitory concentration; format: cell-based; settings: Gram + Bacteria
[2] = test system: Staphylococcus aureus ATCC 6538; test: minimum inhibitory concentration; format: cell-based; settings: Gram + Bacteria
[3] = test system: Micrococcus luteus ATCC 9631; test: minimum inhibitory concentration; format: cell-based; settings: Gram + Bacteria
[4] = test system: Lactobacillus delbrueckii ssp lactis CECT 372; test: minimum inhibitory concentration; format: cell-based; settings: Gram + Bacteria
[5] = test system: Leuconostoc mesenteroides CETC 912; test: minimum inhibitory concentration; format: cell-based; settings: Gram + Bacteria
[6] = test system: Citrobacter freundii ATCC 22636; test: minimum inhibitory concentration; format: cell-based; settings: Gram − Bacteria
[7] = test system: Salmonella typhimurium ATCC 16028; test: minimum inhibitory concentration; format: cell-based; settings: Gram − Bacteria
[8] = test system: Serratia marcenses CECT 274; test: minimum inhibitory concentration; format: cell-based; settings: Gram − Bacteria
[9] = test system: Mycobacterium phlei ATCC 41423; test: minimum inhibitory concentration; format: cell-based; settings: Gram + Bacteria
[10] = test system: Aureobasidium pullulans ATCC 9348; test: minimum inhibitory concentration; format: cell-based; settings: Fungi
[11] = test system: Gliocadium virens ATCC 4645; test: minimum inhibitory concentration; format: cell-based; settings: Fungi
[12] = test system: Chaetonium globosum ATCC 6205; test: minimum inhibitory concentration; format: cell-based; settings: Fungi
[13] = test system: Penicillium chrysogenum CECT 2802; test: minimum inhibitory concentration; format: cell-based; settings: Fungi
[14] = test system: Penicillium funiculosum CECT 2914; test: minimum inhibitory concentration; format: cell-based; settings: Fungi
Aerobes = test: preservative efficacy (Antimicrobial Effectiveness Testing USP 24th Edition) in cosmetic formulations; format: cell-based; settings: 0.20 g of LAE
Method: (§1) This assay consists of the contamination of the protecting formulations with an inoculum mixture of 10^8 cfu/mL concentration, for each of the microorganisms, and the determination of the number of viable cells in the time. This inoculum mixture is composed of the following microorganisms:
(§2) The cosmetic composition to be analysed is divided into sterile containers with 50 g of product for each flask. Each container is inoculated with 0.5 mL of inoculum (10^8 cfu/mL). The target concentration is 10^6 cfu/mL, approximately. All the containers are kept at a temperature between 20-25° C. and are protected from light.
(§3) The level of the microbial contamination is checked at 0 hours, 7 days, 14 days and 28 days. The number of colonies is evaluated by dilution in buffer peptone with the appropriate neutraliser agent of the preservative. The culture media used for counting the microorganisms are: Soya triptone (35-37° C., 48 hours) for the determination of bacteria; Sabouraud agar with chloramphenicol for fungi and yeast (25° C., 3-5 days).
(§4) According to Antimicrobial Effectiveness Testing USP 24th Edition, 1999 (pp. 1809-1811), an antimicrobial preservative is considered to be effective in topically used products made with aqueous bases or vehicles, non-sterile nasal products and emulsions, including those applied to mucous membranes, if: • Not less than 2.0 logarithm reduction from the initial calculated bacteria's count is reached at 14 days and no increase from the 14 days' count at 28 days is detected; and • No increase from the initial calculated count of yeast and moulds is observed.

Yeast = test: as above; format: cell-based, Candida albicans ATCC 10231; settings: 0.20 g of LAE
Method: as §1, §2, §3, §4

[15] = Example 1, oil-in-water emulsion with non-ionic surfactant, 7 days
[16] = Example 1, oil-in-water emulsion with non-ionic surfactant, 14 days
[17] = Example 1, oil-in-water emulsion with non-ionic surfactant, Initial
[18] = Example 2, oil-in-water emulsion with an ionic emulsifier, 7 days
[19] = Example 2, oil-in-water emulsion with an ionic emulsifier, 14 days
[20] = Example 2, oil-in-water emulsion with an ionic emulsifier, Initial
[21] = Example 3, water in oil emulsion with non-ionic emulsifiers, 7 days
[22] = Example 3, water in oil emulsion with non-ionic emulsifiers, 14 days
[23] = Example 3, water in oil emulsion with non-ionic emulsifiers, Initial
[24] = Example 4, aqueous solution with a surfactants' mixture (bath gels, disodium cocoamfoacetate), 7 days
[25] = Example 4, aqueous solution with a surfactants' mixture (bath gels, disodium cocoamfoacetate), 14 days
[26] = Example 4, aqueous solution with a surfactants' mixture (bath gels, disodium cocoamfoacetate), Initial
[27] = Example 5, aqueous solution with a surfactants' mixture (bath gels, disodium lauryl sulfosuccinate), 7 days
[28] = Example 5, aqueous solution with a surfactants' mixture (bath gels, disodium lauryl sulfosuccinate), 14 days
[29] = Example 5, aqueous solution with a surfactants' mixture (bath gels, disodium lauryl sulfosuccinate), Initial
[30] = Example 6, hydroalcoholic gel (after-shaving lotions), 7 days
[31] = Example 6, hydroalcoholic gel (after-shaving lotions), 14 days
[32] = Example 6, hydroalcoholic gel (after-shaving lotions), Initial
[33] = Example 7, facial tonic, 7 days
[34] = Example 7, facial tonic, 14 days
[35] = Example 7, facial tonic, Initial
[36] = Example 8, mask-up cleaner, 7 days
[37] = Example 8, mask-up cleaner, 14 days
[38] = Example 8, mask-up cleaner, Initial
[39] = Example 9, fluid oil-in-water emulsion with non-ionic surfactants (body oil), 7 days
[40] = Example 9, fluid oil-in-water emulsion with non-ionic surfactants (body oil), 14 days
[41] = Example 9, fluid oil-in-water emulsion with non-ionic surfactants (body oil), Initial
[42] = Example 10, toothpaste formulation, 7 days
[43] = Example 10, toothpaste formulation, 14 days
[44] = Example 10, toothpaste formulation, Initial
[45] = Example 11, aqueous solution with surfactants (shampoos), 7 days
[46] = Example 11, aqueous solution with surfactants (shampoos), 14 days
[47] = Example 11, aqueous solution with surfactants (shampoos), Initial
[48] = Example 12, oil-in-water emulsion with non-ionic surfactants (face cream), 7 days
[49] = Example 12, oil-in-water emulsion with non-ionic surfactants (face cream), 14 days
[50] = Example 12, oil-in-water emulsion with non-ionic surfactants (face cream), Initial
[51] = Example 13, oil-in-water emulsion with non-ionic surfactants (sun protector, polysorbate 60), 7 days
[52] = Example 13, oil-in-water emulsion with non-ionic surfactants (sun protector, polysorbate 60), 14 days
[53] = Example 13, oil-in-water emulsion with non-ionic surfactants (sun protector, polysorbate 60), Initial
[54] = Example 14, oil-in-water emulsion with non-ionic surfactants (sun protector, cetyl dimethicone copolyol), 7 days
[55] = Example 14, oil-in-water emulsion with non-ionic surfactants (sun protector, cetyl dimethicone copolyol), 14 days
[56] = Example 14, oil-in-water emulsion with non-ionic surfactants (sun protector, cetyl dimethicone copolyol), Initial
[57] = Example 15, emulsion for hands care, 7 days
[58] = Example 15, emulsion for hands care, 14 days
[59] = Example 15, emulsion for hands care, Initial

CCCCCCCCCCCC(=O)N[C@@H](CCCN=C(N)N)C(=O)OCC.Cl [LAE, ethyl ester of the lauramide of the arginine monohydrochloride]
M.I.C. [1]: 10 ppm
M.I.C. [2]: 32 ppm
M.I.C. [3]: 128 ppm
M.I.C. [4]: 16 ppm
M.I.C. [5]: 32 ppm
M.I.C. [6]: 64 ppm
M.I.C. [7]: 32 ppm
M.I.C. [8]: 32 ppm
M.I.C. [9]: 2 ppm
M.I.C. [10]: 16 ppm
M.I.C. [11]: 32 ppm
M.I.C. [12]: 16 ppm
M.I.C. [13]: 128 ppm
M.I.C. [14]: 16 ppm
viable count With LAE (Aerobes; [15]): 3.1 · 10^3 cfu/mL
viable count With LAE (Aerobes; [16]): 3.3 · 10^2 cfu/mL
viable count With LAE (Aerobes; [17]): 1.1 · 10^6 cfu/mL
viable count With LAE (Aerobes; [18]): 1.6 · 10^4 cfu/mL
viable count With LAE (Aerobes; [19]): 6.5 · 10^2 cfu/mL
viable count With LAE (Aerobes; [20]): 2.7 · 10^6 cfu/mL
viable count With LAE (Aerobes; [21]): 1.8 · 10^3 cfu/mL
viable count With LAE (Aerobes; [22]): <9.9 · 10^1 cfu/mL
viable count With LAE (Aerobes; [23]): 6.2 · 10^6 cfu/mL
viable count With LAE (Aerobes; [24]): 5.8 · 10^3 cfu/mL
viable count With LAE (Aerobes; [25]): <9.9 · 10^1 cfu/mL
viable count With LAE (Aerobes; [26]): 3.3 · 10^6 cfu/mL
viable count With LAE (Aerobes; [27]): 4.8 · 10^2 cfu/mL
viable count With LAE (Aerobes; [28]): 1.3 · 10^2 cfu/mL
viable count With LAE (Aerobes; [29]): 6.7 · 10^6 cfu/mL
viable count With LAE (Aerobes; [30]): 6.9 · 10^3 cfu/mL
viable count With LAE (Aerobes; [31]): <9.9 · 10^1 cfu/mL
viable count With LAE (Aerobes; [32]): 3.7 · 10^6 cfu/mL
viable count With LAE (Aerobes; [33]): 3.6 · 10^3 cfu/mL
viable count With LAE (Aerobes; [34]): 5.9 · 10^2 cfu/mL
viable count With LAE (Aerobes; [35]): 2.7 · 10^6 cfu/mL
viable count With LAE (Aerobes; [36]): 3.8 · 10^3 cfu/mL
viable count With LAE (Aerobes; [37]): 6.7 · 10^2 cfu/mL
viable count With LAE (Aerobes; [38]): 4.5 · 10^6 cfu/mL
viable count With LAE (Aerobes; [39]): 7.6 · 10^3 cfu/mL
viable count With LAE (Aerobes; [40]): <9.9 · 10^1 cfu/mL
viable count With LAE (Aerobes; [41]): 4.5 · 10^6 cfu/mL
viable count With LAE (Aerobes; [42]): 3.3 · 10^3 cfu/mL
viable count With LAE (Aerobes; [43]): 8.0 · 10^2 cfu/mL
viable count With LAE (Aerobes; [44]): 4.5 · 10^6 cfu/mL
viable count With LAE (Aerobes; [45]): 4.8 · 10^3 cfu/mL
viable count With LAE (Aerobes; [46]): 7.0 · 10^2 cfu/mL
viable count With LAE (Aerobes; [47]): 3.3 · 10^6 cfu/mL
viable count With LAE (Aerobes; [48]): 3.7 · 10^4 cfu/mL
viable count With LAE (Aerobes; [49]): 1.9 · 10^3 cfu/mL
viable count With LAE (Aerobes; [50]): 1.1 · 10^6 cfu/mL
viable count With LAE (Aerobes; [51]): 8.4 · 10^3 cfu/mL
viable count With LAE (Aerobes; [52]): 7.5 · 10^2 cfu/mL
viable count With LAE (Aerobes; [53]): 3.1 · 10^6 cfu/mL
viable count With LAE (Aerobes; [54]): 9.4 · 10^2 cfu/mL
viable count With LAE (Aerobes; [55]): 8.7 · 10^2 cfu/mL
viable count With LAE (Aerobes; [56]): 1.4 · 10^6 cfu/mL
viable count With LAE (Aerobes; [57]): 3.3 · 10^3 cfu/mL
viable count With LAE (Aerobes; [58]): <9.9 · 10^1 cfu/mL
viable count With LAE (Aerobes; [59]): 4.4 · 10^6 cfu/mL
viable count With LAE (Yeast; [15]): 9.5 · 10^2 cfu/mL
viable count With LAE (Yeast; [16]): 4.0 · 10^2 cfu/mL
viable count With LAE (Yeast; [17]): 5.6 · 10^5 cfu/mL
viable count With LAE (Yeast; [18]): 1.0 · 10^2 cfu/mL
viable count With LAE (Yeast; [19]): 1.0 · 10^2 cfu/mL
viable count With LAE (Yeast; [20]): 3.6 · 10^4 cfu/mL
viable count With LAE (Yeast; [21]): <9.9 · 10^1 cfu/mL
viable count With LAE (Yeast; [22]): <9.9 · 10^1 cfu/mL
viable count With LAE (Yeast; [23]): 7.0 · 10^4 cfu/mL
viable count With LAE (Yeast; [24]): <9.9 · 10^1 cfu/mL
viable count With LAE (Yeast; [25]): <9.9 · 10^1 cfu/mL
viable count With LAE (Yeast; [26]): 4.6 · 10^4 cfu/mL
viable count With LAE (Yeast; [27]): <9.9 · 10^1 cfu/mL
viable count With LAE (Yeast; [28]): <9.9 · 10^1 cfu/mL
viable count With LAE (Yeast; [29]): 3.6 · 10^4 cfu/mL
viable count With LAE (Yeast; [30]): 1.6 · 10^2 cfu/mL
viable count With LAE (Yeast; [31]): <9.9 · 10^1 cfu/mL
viable count With LAE (Yeast; [32]): 4.2 · 10^4 cfu/mL
viable count With LAE (Yeast; [33]): 1.1 · 10^2 cfu/mL
viable count With LAE (Yeast; [34]): <9.9 · 10^1 cfu/mL
viable count With LAE (Yeast; [35]): 1.2 · 10^4 cfu/mL
viable count With LAE (Yeast; [36]): 1.8 · 10^2 cfu/mL
viable count With LAE (Yeast; [37]): <9.9 · 10^1 cfu/mL
viable count With LAE (Yeast; [38]): 7.2 · 10^4 cfu/mL
viable count With LAE (Yeast; [39]): 2.3 · 10^2 cfu/mL
viable count With LAE (Yeast; [40]): <9.9 · 10^1 cfu/mL
viable count With LAE (Yeast; [41]): 7.2 · 10^4 cfu/mL
viable count With LAE (Yeast; [42]): 1.2 · 10^2 cfu/mL
viable count With LAE (Yeast; [43]): <9.9 · 10^1 cfu/mL
viable count With LAE (Yeast; [44]): 4.2 · 10^4 cfu/mL
viable count With LAE (Yeast; [45]): 1.2 · 10^2 cfu/mL
viable count With LAE (Yeast; [46]): <9.9 · 10^1 cfu/mL
viable count With LAE (Yeast; [47]): 4.2 · 10^4 cfu/mL
viable count With LAE (Yeast; [48]): 9.2 · 10^2 cfu/mL
viable count With LAE (Yeast; [49]): <9.9 · 10^1 cfu/mL
viable count With LAE (Yeast; [50]): 3.2 · 10^4 cfu/mL
viable count With LAE (Yeast; [51]): 4.2 · 10^2 cfu/mL
viable count With LAE (Yeast; [52]): <9.9 · 10^1 cfu/mL
viable count With LAE (Yeast; [53]): 3.8 · 10^4 cfu/mL
viable count With LAE (Yeast; [54]): 4.5 · 10^2 cfu/mL
viable count With LAE (Yeast; [55]): <9.9 · 10^1 cfu/mL
viable count With LAE (Yeast; [56]): 7.9 · 10^4 cfu/mL
viable count With LAE (Yeast; [57]): 7.2 · 10^2 cfu/mL
viable count With LAE (Yeast; [58]): <9.9 · 10^1 cfu/mL
viable count With LAE (Yeast; [59]): 8.6 · 10^4 cfu/mL
